Test results reported in patent publication EP0962138B1, “Pesticidal method” (BASF Agro B.V., Arnhem (NL), Wädenswil-Branch, priority 1998, dated 1999).

Assays:
[1] = test system: Otiorynchus sulcatus; test: Compost incorporation test, protection of potted plants from weevil larvae (Example 1); assay type: in vivo; conditions: Thuya plicata Atrovirens
Experimental: In a twenty-replicate test, Compound A was incorporated in compost by mixing a 2% w/w granule with the compost (Klasmann Substrat 2 (Peat based) ) using a small mechanical mixer. Plants of Thuya plicata Atrovirens were potted in the compost and allowed to grow for two months and then about 15 eggs of Otiorynchus sulcatus were added to the soil and covered with a small layer of compost. As a comparison, some compost was untreated and other compost was treated with the standard chlorpyrifos in the form of the commercial product suSCon Green®. After 27 days the soil was reinfested with 15 more eggs. The plant pots were enclosed such that the plants were exposed to light and the adult beetles which emerged could not escape.
Of the twenty replicates of each test, five were assessed after 6 months and fifteen were assessed after 18 months for numbers of larvae and adults. After 6 months the following results were observed: […]

[2] = test system: vine weevil; test: Curative drench treatment of infested potted plants (Example 2); assay type: in vivo; conditions: after 6 months, Fuchsia triphylla hybrid cv. Koralle
Experimental: In 20-replicate tests, Fuchsia triphylla hybrid cv. Koralle was infested with 15 eggs per pot of vine weevil. Compound A in the form of an 80% water dispersible granule (Regent 800 WG) was suspended in water and added to each pot at the indicated rate per surface area of the pot at various dilutions. After 6 months, the trials were assessed. […] Drench Treatments

[3] = Dose 75 g/m^3 in compost (suSCon Green), after 6 months, five replicates
[4] = Dose 75 g/m^3 in compost (suSCon Green), after 18 months, fifteen replicates
[5] = Dose 2.5 g/m^3 in compost, after 6 months, five replicates
[6] = Dose 2.5 g/m^3 in compost, after 18 months, fifteen replicates
[7] = Dose 5 g/m^3 in compost, after 6 months, five replicates
[8] = Dose 5 g/m^3 in compost, after 18 months, fifteen replicates
[9] = Dose 7.5 g/m^3 in compost, after 6 months, five replicates
[10] = Dose 7.5 g/m^3 in compost, after 18 months, fifteen replicates
[11] = Dose 15 g/m^3 in compost, after 6 months, five replicates
[12] = Dose 15 g/m^3 in compost, after 18 months, fifteen replicates

SMILES: CCOP(=S)(OCC)Oc1nc(Cl)c(Cl)cc1Cl [Chlorpyrifos, chlorpyrifos, reference compound]
- % Control [1, 3]: 87%
- Number per pot [1, 3]: 0.8
- Total # larvae [1, 3]: 4
- % Control [1, 4]: 0%
- % Survival of Plants [1, 4]: 100%
- Number per pot [1, 4]: 3.1
- Total # larvae [1, 4]: 47
- Total Dead Plants [1, 4]: 0

SMILES: N#Cc1nn(-c2c(Cl)cc(C(F)(F)F)cc2Cl)c(N)c1[S+]([O-])C(F)(F)F (centres unmarked) [Compound A, 5-amino-1-(2,6-dichloro 4-trifluoromethylphenyl) 4-trifluoromethylsulfinyl-3-cyanopyrazole]
- % Control [1, 5]: 100%
- Number per pot [1, 5]: 0
- Total # larvae [1, 5]: 0
- % Control [1, 6]: 100%
- % Survival of Plants [1, 6]: 100%
- Number per pot [1, 6]: 0
- Total # larvae [1, 6]: 0
- Total Dead Plants [1, 6]: 0
- % Control [1, 7]: 100%
- Number per pot [1, 7]: 0
- Total # larvae [1, 7]: 0
- % Control [1, 8]: 100%
- % Survival of Plants [1, 8]: 100%
- Number per pot [1, 8]: 0
- Total # larvae [1, 8]: 0
- Total Dead Plants [1, 8]: 0
- % Control [1, 9]: 100%
- Number per pot [1, 9]: 0
- Total # larvae [1, 9]: 0
- % Control [1, 10]: 100%
- % Survival of Plants [1, 10]: 100%
- Number per pot [1, 10]: 0
- Total # larvae [1, 10]: 0
- Total Dead Plants [1, 10]: 0
- % Control [1, 11]: 100%
- Number per pot [1, 11]: 0
- Total # larvae [1, 11]: 0
- % Control [1, 12]: 100%
- % Survival of Plants [1, 12]: 100%
- Number per pot [1, 12]: 0
- Total # larvae [1, 12]: 0
- Total Dead Plants [1, 12]: 0
- Protection of the plants compared with the commercial standard [2]: protected the plants substantially better than the commercial standard fonofos
